Legend:
[1] = target: T1, JAK1 (Homo sapiens, UniProt P23458); assay: Biochemical JAK1 kinase assay (LanthaScreen); conditions: for Ki: read-out: JAK 1 (pKi) (converted)
T1 construct: GST; purchased Life Technologies
Procedure: (§1) A panel of four LanthaScreen JAK biochemical assays (JAK1, 2, 3 and Tyk2) were carried in a common kinase reaction buffer (50 mM HEPES, pH 7.5, 0.01% Brij-35, 10 mM MgCl2, and 1 mM EGTA). Recombinant GST-tagged JAK enzymes and a GFP-tagged STAT1 peptide substrate were obtained from Life Technologies.
(§2) Serially or discretely diluted compounds were pre-incubated with each of the four JAK enzymes and the substrate in white 384-well microplates (Corning) at ambient temperature for 1 h. ATP was subsequently added to initiate the kinase reactions in 10 μL total volume, with 1% DMSO. […] Kinase reactions were allowed to proceed for 1 hour at ambient temperature before a 10 μL preparation of EDTA (10 mM final concentration) and Tb-anti-pSTAT1 (pTyr701) antibody (Life Technologies, 2 nM final concentration) in TR-FRET dilution buffer (Life Technologies) was added. The plates were allowed to incubate at ambient temperature for 1 h before being read on the EnVision reader (Perkin Elmer). Emission ratio signals (520 nm/495 nm) were recorded and utilized to calculate the percent inhibition values based on DMSO and background controls.
(§3) For dose-response analysis, percent inhibition data were plotted vs. compound concentrations, and IC50 values were determined from a 4-parameter robust fit model with the Prism software (GraphPad Software). Results were expressed as pIC50 (negative logarithm of IC50) and subsequently converted to pKi (negative logarithm of dissociation constant, Ki) using the Cheng-Prusoff equation.

[2] = target: T2, JAK3 (Homo sapiens, UniProt P52333); assay: Biochemical JAK3 kinase assay (LanthaScreen); design: GST; purchased Life Technologies; conditions: for Ki: read-out: JAK 3 (pKi) (converted); for JAK3 (pKi)-JAK1 (pKi): selectivity: difference of pKi JAK3 and pKi JAK1
T2 sequence (P52333 1-1124): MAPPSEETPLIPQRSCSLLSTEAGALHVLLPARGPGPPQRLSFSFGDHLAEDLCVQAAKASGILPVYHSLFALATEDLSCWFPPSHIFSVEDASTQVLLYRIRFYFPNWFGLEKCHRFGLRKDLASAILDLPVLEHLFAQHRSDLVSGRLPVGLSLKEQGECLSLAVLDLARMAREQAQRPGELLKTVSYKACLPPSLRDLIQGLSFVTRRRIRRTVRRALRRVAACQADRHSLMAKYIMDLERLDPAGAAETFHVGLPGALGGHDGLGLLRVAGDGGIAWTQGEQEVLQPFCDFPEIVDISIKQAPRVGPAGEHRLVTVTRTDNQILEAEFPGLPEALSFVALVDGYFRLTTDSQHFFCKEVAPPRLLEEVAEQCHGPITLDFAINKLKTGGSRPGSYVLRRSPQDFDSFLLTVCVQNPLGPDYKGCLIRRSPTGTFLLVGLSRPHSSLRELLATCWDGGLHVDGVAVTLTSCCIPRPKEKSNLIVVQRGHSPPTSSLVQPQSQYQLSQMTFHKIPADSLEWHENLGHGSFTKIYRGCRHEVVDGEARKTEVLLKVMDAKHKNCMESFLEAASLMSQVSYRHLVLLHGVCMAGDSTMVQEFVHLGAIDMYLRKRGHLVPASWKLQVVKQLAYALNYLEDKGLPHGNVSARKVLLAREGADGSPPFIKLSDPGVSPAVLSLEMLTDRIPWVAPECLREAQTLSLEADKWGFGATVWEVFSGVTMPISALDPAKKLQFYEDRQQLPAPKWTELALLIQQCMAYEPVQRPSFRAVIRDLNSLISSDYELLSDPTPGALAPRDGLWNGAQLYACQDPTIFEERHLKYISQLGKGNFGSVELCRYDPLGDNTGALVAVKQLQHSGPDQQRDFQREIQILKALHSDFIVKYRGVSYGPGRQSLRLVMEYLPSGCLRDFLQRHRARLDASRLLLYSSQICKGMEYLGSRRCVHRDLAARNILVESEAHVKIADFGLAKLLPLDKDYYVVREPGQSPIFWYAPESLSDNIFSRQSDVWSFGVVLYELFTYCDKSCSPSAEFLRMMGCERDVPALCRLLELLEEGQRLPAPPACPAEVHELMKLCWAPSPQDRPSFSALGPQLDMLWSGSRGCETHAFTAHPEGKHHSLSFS
Procedure: as §1, §2, §3

[3] = system: IL-2 stimulated pSTAT5 in Tall-1 T cells; assay: Cellular JAK3 potency assay: inhibition of IL-2 stimulated pSTAT5 in Tall-1 T cells; assay type: cell-based, human; conditions: for IC50: Homo sapiens, TALL-1, IL-2 stimulated pSTAT5 in Tall-1 T cells, read-out: Tall-1 (pIC50) (converted)
Procedure: The potency of test compounds for inhibition of interleukin-2 (IL-2) stimulated STAT5 phosphorylation was measured in the Tall-1 human T cell line (DSMZ) using AlphaLisa. Because IL-2 signals through JAK3, this assay provides a measure of JAK3 cellular potency.
Compounds were serially diluted in DMSO and dispensed acoustically to empty wells. Assay media (phenol red-free DMEM (Life Technologies) supplemented with 10% FBS (ATCC)) was dispensed (4 μL/well) and plates shaken at 900 rpm for 10 mins. Cells were seeded at 45,000 cells/well in assay media (4 μL/well), and incubated at 37° C., 5% CO2 for 1 hour, followed by the addition of IL-2 (R&D Systems; final concentration 300 ng/ml) in pre-warmed assay media (4 μL) for 30 minutes. After cytokine stimulation, cells were lysed with 6 ul of 3× AlphaLisa Lysis Buffer (PerkinElmer) containing 1× PhosStop and Complete tablets (Roche). The lysate was shaken at 900 rpm for 10 minutes at room temperature (RT). Phosphorylated STAT5 was measured via the pSTAT5 AlphaLisa kit (PerkinElmer). Freshly prepared acceptor bead mixture was dispensed onto lysate (5 μL) under green filtered <100 lux light. Plates were shaken at 900 rpm for 2 mins, briefly spun down, and incubated for 2 hrs at RT in the dark. Donor beads were dispensed (5 μL) under green filtered <100 lux light. Plates were shaken at 900 rpm for 2 minutes, briefly spun down, and incubated overnight at RT in the dark.
To determine the inhibitory potency of test compounds in response to IL-2, the average emission intensity of beads bound to pSTAT5 was measured in a human T cell line. IC50 values were determined from analysis of the inhibition curves of signal intensity versus compound concentration. Data are expressed as pIC50 (negative decadic logarithm IC50) values (mean±standard deviation).

T1 sequence (P23458 whole entry): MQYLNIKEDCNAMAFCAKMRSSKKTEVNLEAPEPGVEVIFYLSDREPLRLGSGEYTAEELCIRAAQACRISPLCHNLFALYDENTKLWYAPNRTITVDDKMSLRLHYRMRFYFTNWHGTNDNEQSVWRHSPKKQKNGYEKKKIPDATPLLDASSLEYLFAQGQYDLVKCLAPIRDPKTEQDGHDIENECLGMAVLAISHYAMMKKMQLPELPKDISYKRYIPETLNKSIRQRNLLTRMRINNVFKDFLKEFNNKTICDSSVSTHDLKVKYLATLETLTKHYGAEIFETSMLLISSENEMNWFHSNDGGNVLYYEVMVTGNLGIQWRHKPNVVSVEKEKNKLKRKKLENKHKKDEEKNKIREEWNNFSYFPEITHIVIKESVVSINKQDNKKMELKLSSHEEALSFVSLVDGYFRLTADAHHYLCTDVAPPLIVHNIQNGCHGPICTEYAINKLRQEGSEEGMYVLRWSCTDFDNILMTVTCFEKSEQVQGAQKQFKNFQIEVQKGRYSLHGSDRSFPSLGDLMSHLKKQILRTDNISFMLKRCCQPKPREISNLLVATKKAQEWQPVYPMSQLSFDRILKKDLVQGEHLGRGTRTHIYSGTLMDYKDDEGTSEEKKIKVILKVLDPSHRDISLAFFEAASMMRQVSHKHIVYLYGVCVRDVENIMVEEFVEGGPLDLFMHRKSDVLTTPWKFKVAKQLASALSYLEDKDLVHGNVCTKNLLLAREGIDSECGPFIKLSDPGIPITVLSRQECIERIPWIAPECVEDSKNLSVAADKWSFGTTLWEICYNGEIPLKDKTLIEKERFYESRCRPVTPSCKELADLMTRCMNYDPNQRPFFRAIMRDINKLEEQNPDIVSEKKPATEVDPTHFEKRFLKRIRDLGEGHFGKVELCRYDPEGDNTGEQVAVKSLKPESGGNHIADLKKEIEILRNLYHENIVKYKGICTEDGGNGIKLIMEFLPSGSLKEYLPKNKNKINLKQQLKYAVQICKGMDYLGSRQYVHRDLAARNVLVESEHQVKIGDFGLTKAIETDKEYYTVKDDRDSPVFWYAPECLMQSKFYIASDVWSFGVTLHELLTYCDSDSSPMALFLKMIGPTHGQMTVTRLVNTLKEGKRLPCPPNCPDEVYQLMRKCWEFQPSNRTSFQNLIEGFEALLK

| Structure (SMILES) | Ki [1] [nM] | Ki [2] [nM] | JAK3 (pKi)-JAK1 (pKi) [2] | IC50 [3] [nM] | JAK 1 (pKi) [1] | JAK 3 (pKi) [2] | Tall-1 (pIC50) ([3]; IL-2 stimulated pSTAT5 in Tall-1 T cells) |
| --- | --- | --- | --- | --- | --- | --- | --- |
| CN(C)C/C=C/C(=O)N1CC[C@H](Oc2cc(-c3ccc(O)c(Cl)c3)cc3[nH]ncc23)C1 [Compound 1-3] | > 100 | 0.1 to 1 | A (a value of 3 or above) | 31.6 to 200 |  |  |  |
| CN(C)C/C=C/C(=O)N1CC[C@H](Oc2cc(-c3ccc(O)c(F)c3)cc3[nH]ncc23)C1 [Compound 1-4] | > 100 | 0.1 to 1 | A (a value of 3 or above) | 200 to 1000 |  |  |  |
| C=CC(=O)N1CC[C@H](Oc2nc(-c3ccc(O)cc3)nc3[nH]ncc23)C1 [Compound 1-6] | > 100 | 0.1 to 1 | A (a value of 3 or above) | 200 to 1000 |  |  |  |
| CN(C)C/C=C/C(=O)N1CC[C@H](Oc2nc(-c3ccc(O)cc3)cc3[nH]ncc23)C1 [Compound 1-7] | > 100 | 0.1 to 1 | B (a value of 2.3 to 3) | 200 to 1000 |  |  |  |
| C=CC(=O)N1CC[C@H](Oc2cc(-c3ccc(O)cc3)nc3[nH]ncc23)C1 [Compound 1-9] |  |  | A (a value of 3 or above) |  | E (a pKi value of 7 or below (Ki of 100 nM or above)) | A (a pKi value≥10 (Ki≤0.1 nM)) | C (a pIC50 value between 6 and 6.7 (IC50 between 1 μM and 200 nM)) |
| C[C@@H]1C[C@H](Oc2cc(-c3ccc(O)cc3)cc3[nH]ncc23)CN1C(=O)/C=C/CN(C)C [Compound 1-10] | > 100 | 0.1 to 1 | A (a value of 3 or above) | 200 to 1000 |  |  |  |
| C=CC(=O)N1C[C@@H](Oc2cc(-c3ccc(O)cc3)cc3[nH]ncc23)C[C@@H]1C [Compound 1-12] | > 100 | 0.1 to 1 | A (a value of 3 or above) | 31.6 to 200 |  |  |  |
| C=CC(=O)N1CC[C@H](Oc2cc(-c3ccc(O)c(F)c3F)cc3[nH]ncc23)C1 [Compound 1-13] | > 100 | 0.1 to 1 | B (a value of 2.3 to 3) | 31.6 to 200 |  |  |  |
| C=CC(=O)N1CC[C@H](Oc2cc(-c3cc(F)c(O)c(F)c3)cc3[nH]ncc23)C1 [Compound 1-14] | > 100 | < 0.1 | A (a value of 3 or above) | 31.6 to 200 |  |  |  |
| C=CC(=O)N1CC[C@H](Oc2cc(-c3ccc(O)c(F)c3)cc3[nH]nc(C)c23)C1 [Compound 1-23] | 10 to 100 | 0.1 to 1 | B (a value of 2.3 to 3) | < 31.6 |  |  |  |
| C=CC(=O)N1CC[C@H](Oc2nc(-c3ccc(O)cc3)nc3[nH]nc(C(F)F)c23)C1 [Compound 1-25] | > 100 | 0.1 to 1 | A (a value of 3 or above) | 31.6 to 200 |  |  |  |
